Laboratory results taken from the supplement of paper PMC8633005.

Assays:
Assay in all cases: drug sensitivity score (DSS) (DSS (unitless, 0-50 scale)); higher = more sensitive (stronger viability inhibition); extreme values may be limits of the assay
Conditions in all cases: 72 h; culture: 2D
[1] = tested on: FM-MEL-3
Outline: (§1)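 Drug sensitivity scores, modified area-under-curve measures, were derived from dose-response curves fitted in the in-house Breeze software. The curves came from melanoma cell lines and patient-derived melanoma cultures (1000–1500 cells per well) grown in 2D in 384-well plates holding a 527-compound oncology library. Each compound was dissolved in DMSO or water and tested at five concentrations across a 10,000-fold range. Viability was read by CellTiter-Glo luminescence after 72 h at 37 °C.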

[2] = tested on: WM165
Outline: as §1

[3] = tested on: SK-MEL-2
Outline: as §1

[4] = tested on: Bowes
Outline: as §1

[5] = tested on: WM852
Outline: as §1

[6] = tested on: SK-MEL-28
Outline: as §1

[7] = tested on: FM-MEL-6
Outline: as §1

[8] = tested on: FM-MEL-2
Outline: as §1

| SMILES | drug sensitivity score [1] | drug sensitivity score [2] | drug sensitivity score [3] | drug sensitivity score [4] | drug sensitivity score [5] | drug sensitivity score [6] | drug sensitivity score [7] | drug sensitivity score [8] |
| --- | --- | --- | --- | --- | --- | --- | --- | --- |
| CS(=O)(=O)N1CCN(Cc2cc3nc(-c4cccc5[nH]ncc45)nc(N4CCOCC4)c3s2)CC1 [Pictilisib] | 8.8 | 8.4 | 3.2 | 8.4 | 6.5 | 9.6 | 7.4 | 12.7 |
| Cn1cc(-c2cnn3c(N)c(Br)c([C@@H]4CCCNC4)nc23)cn1 [MK-8776] | 1.7 | 0 | 2 | 0.9 | 1.9 | 0 | 0 | 0 |
| O=C(Nc1cccc(NC(=O)c2cccc(O)c2O)c1)c1cccc(O)c1O [MST-312] | 10.3 | 16 | 6.7 | 11.4 | 6.8 | 8.4 | 4 | 6.1 |
| COc1cc2nccc(Oc3ccc(NC(=O)C4(C(=O)Nc5ccc(F)cc5)CC4)cc3)c2cc1OC [Cabozantinib] | 2.5 | 0 | 0 | 2.1 | 0.8 | 0 | 0.2 | 2.2 |
| CCOc1cc2ncc(C#N)c(Nc3ccc(OCc4ccccn4)c(Cl)c3)c2cc1NC(=O)/C=C/CN(C)C [Neratinib] | 3.2 | 4.9 | 0.2 | 3.2 | 0.5 | 0 | 0.3 | 1 |
| NS(=O)(=O)NCCNc1nonc1/C(=N/O)Nc1ccc(F)c(Br)c1 [Epacadostat] | 1 | 0 | 0 | 0 | 0.7 | 0 | 0.5 | 0.5 |
| Cc1cc(Nc2ncnc3ccc(NC4=NC(C)(C)CO4)cc23)ccc1Oc1ccn2ncnc2c1 [Tucatinib] | 0 | 0 | 0 | 0 | 0 | 0 | 0 | 0.4 |
| CCCS(=O)(=O)Nc1ccc(F)c(C(=O)c2c[nH]c3ncc(-c4ccc(Cl)cc4)cc23)c1F [Vemurafenib] | 0 | 10.2 | 0 | 2.4 | 0 | 13.5 | 0 | 0 |
| CNC(=O)c1ccccc1Nc1cc(Nc2ccc(N3CCOCC3)cc2OC)ncc1C(F)(F)F [VS-4718] | 12.5 | 7.8 | 6.3 | 3 | 6.7 | 4.5 | 7.2 | 9.2 |
| Nc1ncnc2c1nc(Cl)n2[C@@H]1O[C@H](CO)[C@@H](O)[C@H]1O [8-chloro-adenosine] | 3.3 | 14.8 | 7.7 | 5.2 | 4.6 | 5.1 | 7.5 | 0.9 |
| Nc1cc(COc2c(Cl)cc(C[C@H](N)C(=O)O)cc2Cl)c2oc(-c3ccccc3)nc2c1 [JPH203] | 0 | 0 | 0 | 0 | 0 | 0 | 0.6 | 0 |
| CN1CCc2c(c3ccccc3n2Cc2ccc(C(=O)NO)cc2)C1 [Tubastatin A] | 0.6 | 2.2 | 1 | 2 | 0 | 1.3 | 0 | 0.6 |
| O=C(O)c1ccc(O)c2ncccc12 [IOX-1] | 0.8 | 4.3 | 0 | 0 | 0 | 0.8 | 0.9 | 0.4 |
| N#CC[C@H](C1CCCC1)n1cc(-c2ncnc3[nH]ccc23)cn1 [Ruxolitinib] | 1.4 | 0 | 0 | 0.1 | 0.1 | 0 | 0 | 0 |
| CC(C)N(CCCNC(=O)Nc1ccc(C(C)(C)C)cc1)C[C@H]1O[C@@H](n2cc(Br)c3c(N)ncnc32)[C@H](O)[C@@H]1O [SGC0946] | 6.1 | 0 | 0 | 0 | 2 | 0 | 0.8 | 1.4 |
| COc1cc2c(cc1OCCCN1CCCC1)N=C(N)C21CCC1 [A-366] | 0.4 | 2.3 | 0 | 3.8 | 2.7 | 0.6 | 0.5 | 0 |
| Clc1ccc(C(c2ccccc2Cl)C(Cl)Cl)cc1 (configuration not stated) [Mitotane] | 0 | 0 | 0 | 1 | 0 | 0 | 0 | 0 |
| COc1cccc2c1C(=O)c1c(O)c3c(c(O)c1C2=O)C[C@@](O)(/C(CO)=N/NC(=O)CCCCCN1C(=O)C=CC1=O)C[C@@H]3O[C@H]1C[C@H](N)[C@H](O)[C@H](C)O1 [Aldoxorubicin] | 8 | 15.2 | 6.3 | 4.3 | 5.8 | 8.8 | 8.6 | 6.4 |
| Cc1sc2c(c1C)C(c1ccc(Cl)cc1)=N[C@@H](CC(=O)Nc1ccc(OCCOCCOCCOCCNc3cccc4c3C(=O)N(C3CCC(=O)NC3=O)C4=O)cc1)c1nnc(C)n1-2 (some centres not stated) [ARV-825] | 4.8 | 8.3 | 2.9 | 14.2 | 0 | 3.4 | 6.1 | 4.7 |
